# Where “and” joins values, the source holds several entries; their conditions need not be identical. Equal entries are not always repeated.
# Experiments:
# blood pressure of cats = assay: Reduction of blood pressure of cat; format: in vivo; details: cats
# Protocol: A spontaneously hypertensive rat (SHR) was anesthetized with 40 mg/ml pentobarbital, and fixed by its back on an experimental stand. The skin at its neck was cut open after removing hair, and thereafter the right common carotid artery was separated with its proximal end being clamped by a artery clamp and its axifugal end being ligated by a thread. A V-shape cut was made with scissors at the axifugal end, into which an arterial cannula filled with heparin physiological saline was inserted. The arterial cannula was connected with a blood pressure transducer, and then the blood pressure transducer was connected to a computer-controlled three-way physiological-pharmacological recorder. The right femoral vein of the rat was separated and intubated for the injection of a drug. When the blood pressure became stable (i.e., the blood pressure contraction curve became straight), the rat was administered by intravenous route.
# Five cats of 2.5-3.2 kg were administered orally and intravenously respectively according to the method in Example 8, and then their systolic pressure and diastolic pressure were determined using normal cats non-administered as a control group.
# [1] = system: aorta smooth muscle of rabbit; assay: Effects on aorta of rabbit (contraction of isolated aorta section caused by adrenalin); set-up: species or system New Zealand rabbit
# Protocol: A New Zealand rabbit was beheaded and unconscious. After thoracotomy, its thoracic aorta was quickly taken out, and quickly placed in and flushed with a pre-cooled LOCK's solution (which comprised of 1000 ml water, 9 g NaCl, 0.35 g KCl, 0.35 g MgSO4.7H2O, 0.16 g KH2PO4, and 1 g NaHCO3) to remove bloodiness. The connective tissue outside the blood vessel was carefully cut off, and an aorta section of 2-3 mm wide at an angle of 45° relative to the vessel was taken for use in the following test.
# The aorta section of 2 cm long was clamped at its both ends with frog heart clips, and put in a thermostatic perfusion tank of 38° C. with the lower end being fixed at the bottom of the tank and the top end being connected by a thread to a tensile transducer of a two-way electrophysiolograph. Oxygen was bubbled to the solution in the perfusion tank, and the contraction force of the aorta section was recorded after balancing it in the solution for 80 min. During which, the LOCK's solution was changed once per 20 min. After adding 1.2×10^−6 mg/ml adrenalin to the solution, the contraction curve of the aorta section was recorded.
# [2] = 5 mg/kg iv, before administration
# [3] = 5 mg/kg iv, before administration, 5 mg/kg
# [4] = 10 mg/kg o.s, 10 min after administration
# [5] = 10 mg/kg o.s, 10 min after administration, 10 mg/kg
# [6] = 10 mg/kg o.s, 20 min after administration
# [7] = 10 mg/kg o.s, 20 min after administration, 10 mg/kg
# [8] = 10 mg/kg o.s, 30 min after administration
# [9] = 10 mg/kg o.s, 30 min after administration, 10 mg/kg
# [10] = 10 mg/kg o.s, 40 min after administration
# [11] = 10 mg/kg o.s, 40 min after administration, 10 mg/kg
# [12] = 10 mg/kg o.s, 50 min after administration
# [13] = 10 mg/kg o.s, 50 min after administration, 10 mg/kg
# [14] = 10 mg/kg o.s, 60 min after administration
# [15] = 10 mg/kg o.s, 60 min after administration, 10 mg/kg
# [16] = 10 mg/kg o.s, 90 min after administration
# [17] = 10 mg/kg o.s, 90 min after administration, 10 mg/kg
# [18] = 10 mg/kg o.s, 120 min after administration
# [19] = 10 mg/kg o.s, 120 min after administration, 10 mg/kg
# [20] = 10 mg/kg o.s, 150 min after administration
# [21] = 10 mg/kg o.s, 150 min after administration, 10 mg/kg
# [22] = 10 mg/kg o.s, 180 min after administration
# [23] = 10 mg/kg o.s, 180 min after administration, 10 mg/kg
# [24] = 10 mg/kg o.s, before administration
# [25] = 10 mg/kg o.s, before administration, 10 mg/kg
compound,measurement,setting,value
"CC1(C)CNCC(C)(C)C1=O [Compound of formula II, 3,3,5,5-tetramethyl-4-piperidone]",Average Diastolic pressure,blood pressure of cats; [2],146.25 mmHg
same,Average Systolic pressure,blood pressure of cats; [2],199.5 mmHg
same,"Diastolic pressure, Animal 1-4 individually",blood pressure of cats; [3],169 mmHg and 138 mmHg and 163 mmHg and 115 mmHg
same,"Systolic pressure, Animal 1-4 individually",blood pressure of cats; [3],226 mmHg and 183 mmHg and 211 mmHg and 178 mmHg
same,Average Diastolic pressure,blood pressure of cats; [4],119 mmHg
same,Average Systolic pressure,blood pressure of cats; [4],166.25 mmHg
same,"Diastolic pressure, individual animals",blood pressure of cats; [5],143 mmHg and 145 mmHg and 112 mmHg and 76 mmHg
same,"Systolic pressure, Animal 1-4 individually",blood pressure of cats; [5],190 mmHg and 180 mmHg and 159 mmHg and 136 mmHg
same,Average Diastolic pressure,blood pressure of cats; [6],107.25 mmHg
same,Average Systolic pressure,blood pressure of cats; [6],153 mmHg
same,"Diastolic pressure, individual animals",blood pressure of cats; [7],130 mmHg and 136 mmHg and 91 mmHg and 72 mmHg
same,"Systolic pressure, Animal 1-4 individually",blood pressure of cats; [7],170 mmHg and 181 mmHg and 138 mmHg and 123 mmHg
same,Average Diastolic pressure,blood pressure of cats; [8],96 mmHg
same,Average Systolic pressure,blood pressure of cats; [8],140.5 mmHg
same,"Diastolic pressure, individual animals",blood pressure of cats; [9],110 mmHg and 108 mmHg and 91 mmHg and 75 mmHg
same,"Systolic pressure, Animal 1-4 individually",blood pressure of cats; [9],154 mmHg and 140 mmHg and 138 mmHg and 130 mmHg
same,Average Diastolic pressure,blood pressure of cats; [10],95.25 mmHg
same,Average Systolic pressure,blood pressure of cats; [10],140.5 mmHg
same,"Diastolic pressure, individual animals",blood pressure of cats; [11],107 mmHg and 100 mmHg and 95 mmHg and 79 mmHg
same,"Systolic pressure, Animal 1-4 individually",blood pressure of cats; [11],146 mmHg and 133 mmHg and 143 mmHg and 140 mmHg
same,Average Diastolic pressure,blood pressure of cats; [12],101 mmHg
same,Average Systolic pressure,blood pressure of cats; [12],144.25 mmHg
same,"Diastolic pressure, individual animals",blood pressure of cats; [13],110 mmHg and 116 mmHg and 95 mmHg and 83 mmHg
same,"Systolic pressure, Animal 1-4 individually",blood pressure of cats; [13],149 mmHg and 140 mmHg and 144 mmHg (2×)
same,Average Diastolic pressure,blood pressure of cats; [14],103 mmHg
same,Average Systolic pressure,blood pressure of cats; [14],144 mmHg
same,"Diastolic pressure, individual animals",blood pressure of cats; [15],110 mmHg and 117 mmHg and 102 mmHg and 83 mmHg
same,"Systolic pressure, Animal 1-4 individually",blood pressure of cats; [15],149 mmHg and 153 mmHg and 130 mmHg and 144 mmHg
same,Average Diastolic pressure,blood pressure of cats; [16],103.75 mmHg
same,Average Systolic pressure,blood pressure of cats; [16],157 mmHg
same,"Diastolic pressure, individual animals",blood pressure of cats; [17],102 mmHg and 120 mmHg and 97 mmHg and 96 mmHg
same,"Systolic pressure, Animal 1-4 individually",blood pressure of cats; [17],154 mmHg (2×) and 180 mmHg and 140 mmHg
same,Average Diastolic pressure,blood pressure of cats; [18],108.25 mmHg
same,Average Systolic pressure,blood pressure of cats; [18],165 mmHg
same,"Diastolic pressure, individual animals",blood pressure of cats; [19],93 mmHg and 154 mmHg and 96 mmHg and 90 mmHg
same,"Systolic pressure, Animal 1-4 individually",blood pressure of cats; [19],146 mmHg and 195 mmHg and 163 mmHg and 156 mmHg
same,Average Diastolic pressure,blood pressure of cats; [20],111.75 mmHg
same,Average Systolic pressure,blood pressure of cats; [20],169.25 mmHg
same,"Diastolic pressure, individual animals",blood pressure of cats; [21],93 mmHg and 161 mmHg and 109 mmHg and 84 mmHg
same,"Systolic pressure, Animal 1-4 individually",blood pressure of cats; [21],146 mmHg and 206 mmHg and 168 mmHg and 157 mmHg
same,Average Diastolic pressure,blood pressure of cats; [22],117.5 mmHg
same,Average Systolic pressure,blood pressure of cats; [22],176.25 mmHg
same,"Diastolic pressure, individual animals",blood pressure of cats; [23],107 mmHg and 164 mmHg and 112 mmHg and 87 mmHg
same,"Systolic pressure, Animal 1-4 individually",blood pressure of cats; [23],158 mmHg and 213 mmHg and 170 mmHg and 164 mmHg
same,Average Systolic pressure,"blood pressure of cats; 10 mg/kg o.s, 210 min after administration",176.5 mmHg
same,"Systolic pressure, Animal 1-4 individually","blood pressure of cats; 10 mg/kg o.s, 210 min after administration, 10 mg/kg",159 mmHg and 213 mmHg and 170 mmHg and 164 mmHg
same,Average Systolic pressure,"blood pressure of cats; 10 mg/kg o.s, 240 min after administration",182.75 mmHg
same,"Systolic pressure, Animal 1-4 individually","blood pressure of cats; 10 mg/kg o.s, 240 min after administration, 10 mg/kg",178 mmHg and 213 mmHg and 176 mmHg and 164 mmHg
same,Average Diastolic pressure,blood pressure of cats; [24],147.5 mmHg
same,Average Systolic pressure,blood pressure of cats; [24],202.5 mmHg
same,"Diastolic pressure, individual animals",blood pressure of cats; [25],143 mmHg and 165 mmHg and 145 mmHg and 137 mmHg
same,"Systolic pressure, Animal 1-4 individually",blood pressure of cats; [25],191 mmHg and 215 mmHg and 196 mmHg and 208 mmHg
same,Time of taking effect,[1]; concentration 1 × 10^−4 mg/ml,2 min
same,Contraction force,"[1]; concentration 1 × 10^−4 mg/ml, 10 min, then adrenalin 1.2×10^−6 mg/ml, relative to original value",0.3
same,reduction of the contraction of aorta section caused by adrenalin,[1]; concentration range 5×10^−3-1×10^−4 mg/ml,could obviously reduce the contraction of aorta section caused by adrenalin
same,inhibition of the contraction of aorta smooth muscle caused by adrenalin,[1]; concentration range 5×10^−4 to 10×10^−2 mg/ml,inhibit the contraction of aorta smooth muscle of rabbit caused by adrenalin
same,"contraction force resumed by adrenalin, fraction of the original value","[1]; sample 10 min, then adrenalin 1.2×10^−6 mg/ml, stated for the three samples together",½-⅓

# Source: US7608630B2, “Marasmius androsaceus L.es Fr extract, piperidone derivative, and their use for the preparation of hypertensives” (Hainan Yangpu New Special Pharmaceutical Co., Ltd., priority 2004, dated 2009)
